Laboratory results published in publication PMC4838890, “Dynamic and flexible H3K9me3 bridging via HP1β dimerization establishes a plastic state of condensed chromatin” (Nature Communications, 2016).
Entries after “also recorded” stand apart in the source; their conditions may differ.

Experiments:
[1] = test system: H3KC9me3 oligonucleosomes; assay: Chromatin coprecipitation, H3KC9me3 oligonucleosomes; assay type: binding, Xenopus laevis
Protocol: (§1) 6.7 nM oligonucleosomes were incubated with 1 μM recombinant protein in 100 μl binding buffer (10 mM triethanolamine (pH 7.5), 150 mM NaCl, 5 mM MgCl2, 0.1 mM EDTA, 0.1% (v/v) Triton-X100) for 1 h on ice. Precipitated chromatin complexes were recovered by centrifugation at 16,100g for 30 min at 4°C. Pellets were washed once with 0.5 ml binding buffer and centrifuged for 15 min at 4 °C. Precipitated material was resuspended in 10 μl 1 × SDS loading buffer and boiled for 5 min before running on SDS–PAGE.
(§2) Supplementary Table 1: Summary of conditions used in the different experiments of this study.
(§3) experiment result modification template Temp. [NaCl] [MgCl2]
(§4) chromatin Fig. 1e,f; Fig. S1f-h; H3K9me3 oligo- 4 150 5

[2] = test system: H3K9me0 and H3K9me3 chromatin; settings: cited from earlier work
Description: In our model, modulation of the general chromatin-binding mode is brought about by varying sequences in the HR and NT domains as well as possibly their post-translational modification in other HP1 proteins (different variants, different species). We think that within these regions the overall charge but not a particular sequence is mainly dictating the chromatin-binding properties.

[3] = test system: DNA fragment of 150 bp; assay: Electrophoretic mobility shift assay (EMSA); assay type: binding; settings: 150 bp DNA, 0, 3, 9 μM protein, 100 mM NaCl, 5 mM MgCl2, RT
Protocol: 50 ng 150 bp DNA amplified from the backbone of pUC18 was incubated with 0, 3, 9 μM recombinant protein in 10 μl EMSA buffer (10 mM Tris-HCl (pH 8.0), 100 mM NaCl, 5 mM MgCl2) for 20 min at room temperature (RT). 2 μl 50% (v/v) glycerol was added and samples were loaded onto 6% native PAGE gels. After electrophoresis, DNA was visualized by staining with 1 × SYBR Gold/0.25 × TBE for 20 min at RT. Images were captured using a ChemiDoc MP Imaging System (Bio-Rad, München, Germany). […]
crosslinking Fig. S6e,f nucleosomes […]
crosslinking Fig. S7a,b nucleosomes
EMSA Fig. 1g; Fig. 5c; n//a RT 100 5
1Preincubation of oligonucleosomes and h HP1β was performed at 4 °C . Measurements wer e carried out at the in dicated te mperature.
2in increments o f 0 .5 mM
3MgCl2 was added at the end of incubation to coprecipitate oligonucleosomes a nd bound hHP1β.

[4] = test system: H3K9me3 oligonucleosomes; assay: Chromatin coprecipitation, H3K9me3 oligonucleosomes; assay type: binding, Xenopus laevis; settings: chromatin coprecipitation, 5 mM MgCl2
Protocol: as §1, §2, §3, §4

[5] = test system: mouse embryonic stem cells (mESC); assay: ChIP-seq genome-wide correlation with H3K9me3; assay type: cell-based
Protocol: For crosslink MNase ChIP of HP1β, 10^7 TT2 WT mouse ES cells were collected. Cells were crosslinked with 1% (v/v) formaldehyde in 10 ml of PBS for 10 min at RT, then quenched with 0.125 M glycine for 5 min. Cells were washed 1 × with PBS, and resuspended in 1 ml of EZ Nuclei Isolation Buffer (Sigma-Aldrich, Steinheim, Germany). The cytoplasmic supernatant was discarded and the pellet was flash frozen with liquid N2. […]
A third of ChIP and input DNA (10–20 ng total) underwent end repair with T4 and Klenow, A-tailing and adaptor ligation. […] Resulting PCR was then purified on 2% EX Gel (Life Technologies, Carlsbad, USA) at the 200–700 bp range, and quantified on Qubit and Agilent Tapestation. […]
Following published data sets were downloaded from NCBI/GEO for this study: SPR899601/ H3K9me3 SETDB1^f/− and SPR899602/H3K9me3 SETDB1^−/− both done with anti-H3K9me3 antibody (ab8898)[36]. Reads were processed and aligned to the mouse reference genome (mm9) using QuasR in R. Genomic alignment was performed twice using BOWTIE with the following parameters: --strata, --best and -m 1 or -m 99 to account for reads that map uniquely or up to 99 times in the mouse genome, respectively. For genome-wide comparisons, only uniquely mapping reads were used. Reads mapping up to 99 times were used for ERV analysis and genome browser visualization. […]

Substance: Swi6: S. pombe HP1 protein
- recovery with H3KC9me3 oligonucleosomes ([1]; 6.7 nM oligonucleosomes, 1 μM protein, 150 mM NaCl, 5 mM MgCl2): specificity of Swi6 association with H3K9me0 and H3K9me3 oligonucleosomes increased significantly when the chromatin was more saturated; also recorded: recovered to a higher degree in H3K9me3 chromatin coprecipitation compared with hHP1β
- molecules bound per nucleosome ([1]; saturating protein concentrations): approximately four
- binding to unmodified chromatin ([2]; ref [29]): more pronounced binding to unmodified chromatin

Substance: hHP1α WT: recombinant human HP1α (GenBank BC006821) [reference compound]
- DNA binding [3]: high level of general DNA binding
- discrimination between H3K9me0 and H3K9me3 chromatin ([2]; ref [12]): limited discrimination between H3K9me0 and H3K9me3 chromatin
- specificity for H3K9me3 [4]: much less specificity for H3K9me3 compared with hHP1β

Substance: mHP1β: endogenous mouse HP1β; sequence identical to human HP1β
- H3K9me3 loss on SETDB1 deletion at mHP1β-enriched sites ([5]; conditional SETDB1 deletion, H3K9me3 data ref [36]): the strongest loss of H3K9me3 occurred at sites enriched for mHP1β in WT cells
- Pearson's R, genome-wide correlation with H3K9me3 ([5]; endogenous mHP1β, antibody-based ChIP-seq, 1 kb windows): 0.77
